# Values of other authors in patent US5710046A, “Tagging hydrocarbons for subsequent identification” (Amoco Corporation, priority 1994, dated 1998).
# [1] = dispersed in methanol or benzene
smiles,measurement,setting,value
"CCN1C(=CC=CC=CC=Cc2sc3ccc4ccccc4c3[n+]2CC)Sc2ccc3ccccc3c21 [DDTC, 3,3'-diethyl-2,2'-(4,5', 4',5'-dibenzo) thiatricarbocyanine iodide]",fluorescence wavelength,[1],approximately 840 nanometers
same,strong absorption,[1],786 nanometers
same,fluorescence,in water,completely non-fluorescent
same,solubility,in water,less soluble
